Measurements published in US20220274947A1, “NOVEL HETEROARYL-TRIAZOLE COMPOUNDS AS PESTICIDES” (Bayer Aktiengesellschaft, priority 2019, published 2022).

How the values were obtained:
Assay type in all cases: in vivo
Rhipicephalus microplus [1] = assay: Rhipicephalus (Boophilus) microplus injection test (BOOPMI Inj); conditions: 168 h, injection into adult engorged female ticks, egg deposition after 7 days, read-out: activity (efficacy: 100% means all eggs are infertile); for pest or weed control at 0.004 mg: application rate 4 μg/tick; for pest or weed control at 0.02 mg: application rate 20 μg/tick
Method in brief: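 Compound in DMSO, 1 μL, injected abdominally into five adult engorged females, which were then held in a climate chamber. Read-out is egg fertility, scored from deposition at 7 days, with unclear eggs followed to hatching (~42 days); 0% means all eggs fertile, 100% all infertile.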

Rhipicephalus microplus [2] = assay: Rhipicephalus (Boophilus) microplus in-vitro contact test, larval cattle tick, strain Parkhurst (BOOPMI Cont); conditions: application rate 5 μg/cm^2 (=500 g/ha), tick larvae, after 48 hours, read-out: activity (efficacy: 100% means all larvae are dead or moribund)
Method in brief: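 After 48 h at 27° C. and 85% humidity, percent dead or moribund larvae was scored from negative geotactic behaviour. Larvae (20-50, Parkhurst strain, synthetic pyrethroid-resistant) were exposed in tubes coated with compound from acetone, 900 ppm corresponding to 5 μg/cm^2.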

Diabrotica balteata = Diabrotica balteata spray test; conditions: 168 h, wheat seeds, larvae, after 7 days, read-out: activity (efficacy: 100% means all seedlings have grown up like in the untreated, uninfected control); for pest or weed control at 160 µg/disc, 500 g/ha: application rate 500 g/ha (=160 μg/well); for pest or weed control at 32 µg/disc, 100 g/ha: application rate 100 g/ha (=32 μg/well)
Method in brief: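 Efficacy (%) was scored 7 days after spraying, with 100% meaning growth like the untreated, uninfected control and 0% meaning no seedling grew. Spray solutions of compound in acetone/DMF with emulsifier-containing water went onto 1-day-germinated wheat seeds, and each unit was then infested with 10-20 banded cucumber beetle larvae.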

[3] = test system: Culex quinquefasciatus strain P00; assay: Culex quinquefasciatus test (CULXFA surface treatment & contact assay); conditions: surface concentration 20 mg/m^2, glazed tile, exposure 30 minutes, 24 hours after contact, read-out: efficacy (mortality)
Experimental: Culex quinquefasciatus Test (CULXFA Surface Treatment & Contact Assay) Solvent: Aceton+2000 ppm rapeseed oil methyl ester (RME)
(§1) In order to produce a sufficient, active ingredient containing solution it is necessary to solve the test compound in the solvent-mix (acetone at 2 mg/ml/RME 2 000 ppm). This solution is pipetted onto a glazed tile and after evaporation of the acetone, adult mosquitoes of the species Culex quinquefasciatus strain P00 are placed onto the dried surface. The exposure time is 30 minutes. Mortality in percent (%) is determined 24 hours after contact of the insects to the treated surface. 100% mortality means that all tested insects are dead, whereas 0% means that no insect died.

Ctenocephalides felis [4] = assay: Ctenocephalides felis oral test (CTECFE Oral); conditions: 48 h, read-out: activity (mortality)
Method in brief: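 Percent mortality was recorded 2 days after roughly 20 adult Ctenocephalides felis fed on treated cattle blood. The blood was warmed to 37 °C beneath a parafilm membrane, with the fleas kept at room temperature. Compound was dissolved in DMSO and diluted into the blood to test concentration.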

[5] = test system: Aedes aegypti strain MONHEIM; assay: Aedes aegypti test (AEDSAE surface treatment & contact assay); conditions: exposure 30 minutes, 24 hours after contact, read-out: efficacy (mortality); for mortality at 4 mg/m2: surface concentration 4 mg/m^2, glazed tile; for mortality at 20 mg/m2: surface concentration 20 mg/m^2, glazed tile
Method in brief: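 Compound dissolved in acetone (2 mg/ml) with 2000 ppm rapeseed oil methyl ester, pipetted onto glazed tile and dried. Adult mosquitoes exposed on the surface for 30 min; percent mortality scored 24 h after contact.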

Spodoptera frugiperda = Spodoptera frugiperda spray test; conditions: in Zea mays, 168 h, read-out: activity (mortality)
Method in brief: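 Percent kill of fall armyworm caterpillars was assessed 7 days after infesting dried, treated maize leaf sections. Treatment was a spray of compound in acetone/dimethylformamide, diluted with water containing emulsifier at 1000 ppm.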

Ctenocephalides felis [6] = assay: Ctenocephalides felis in-vitro contact test, adult cat flea (CTECFE Cont); conditions: application rate 5 μg/cm^2 (=500 g/ha), adult cat fleas, after 48 hours, read-out: activity (efficacy: 100% means all fleas are dead or moribund)
Method in brief: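 Efficacy, as percent of fleas dead or moribund, was scored 48 h after adults (5-10 per tube) were placed in glass tubes whose walls carried dried compound at 5 μg/cm^2 (900 ppm solution). Moribund meant failing to climb away from a 45-50° C. hot plate within 5 min.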

Rhipicephalus sanguineus = Rhipicephalus sanguineus in-vitro contact test, adult brown dog ticks (RHIPSA Cont); conditions: 48 h, after 48 hours, read-out: activity (efficacy: 100% means all ticks are dead or moribund); for pest or weed control at 5 µg/cm2, 500 g/ha: application rate 5 μg/cm^2 (=500 g/ha); for pest or weed control at 1 µg/cm2, 100 g/ha: application rate 1 μg/cm^2 (=100 g/ha)
Method in brief: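 Compound in acetone was coated onto the inner walls of glass tubes and dried by rotation before adult brown dog ticks were exposed. Efficacy was scored at 48 h. Ticks unable to climb away from a 45–50 °C heating plate within 5 min counted as dead or moribund.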

Nezara viridula = Nezara viridula spray test; conditions: in Hordeum vulgare, 96 h, barley plants, larvae, after 4 days; for mortality at 100 g/ha: application rate 100 g/ha
Method in brief: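 Mortality was read at day 4 (0% = no kill, 100% = total kill) after spraying larva-infested barley plants. Test solutions were made from an acetone/DMF concentrate diluted with water holding 1000 ppm alkylarylpolyglycol ether emulsifier.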

Myzus persicae [7] = assay: Myzus persicae spray test; conditions: in Brassica rapa, foliar, 120 h; for mortality at 100 g/ha: read-out: activity (mortality), application rate 100 g/ha, spray, Chinese cabbage leaf disks, after 5 days; for mortality at 500 g/ha: read-out: activity (mortality), application rate 500 g/ha, spray, Chinese cabbage leaf disks, after 5 days
Experimental: Myzus persicae—Spray Test Solvent: 78.0 parts by weight acetone • 1.5 parts by weight dimethylformamide Emulsifier: alkylarylpolyglycol ether To produce a suitable preparation of active compound, 1 part by weight of active compound is mixed with the stated amount of solvents and is diluted with water, containing an emulsifier concentration of 1000 ppm, to the desired concentration. Further test concentrations are prepared by dilution with emulsifier containing water.
Chinese cabbage (Brassica pekinensis) leaf disks infected with all instars of the green peach aphid (Myzus persicae), are sprayed with a preparation of the active ingredient of the desired concentration.
After 5 days mortality in % is determined. 100% means all aphids have been killed and 0% means none of the aphids have been killed.

[8] = test system: Anopheles funestus strain FUMOZ-R; assay: Anopheles funestus test (ANPHFU surface treatment & contact assay); conditions: exposure 30 minutes, 24 hours after contact, read-out: efficacy (mortality); for mortality at 4 mg/m2: surface concentration 4 mg/m^2, glazed tile; for mortality at 20 mg/m2: surface concentration 20 mg/m^2, glazed tile
Experimental: Anopheles funestus Test (ANPHFU Surface Treatment & Contact Assay) Solvent: Aceton+2000 ppm rapeseed oil methyl ester (RME)
as §1, with “2000” for “2 000”, “Anopheles funestus” for “Culex quinquefasciatus”, “FUMOZ-R (Hunt et al., Med. Vet. Entomol. 2005 September; 19(3): 271-275)” for “P00”

[9] = test system: Musca domestica strain WHO—N; assay: Musca domestica test (MUSCDO surface treatment & contact assay); conditions: surface concentration 20 mg/m^2, glazed tile, exposure 30 minutes, 24 hours after contact, read-out: efficacy (mortality)
Method in brief: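 Compound dissolved in acetone (2 mg/ml) with 2000 ppm rapeseed oil methyl ester and pipetted onto glazed tile; after acetone evaporation, adult flies exposed to dried surface for 30 minutes. Mortality (%) scored 24 hours after contact.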

Myzus persicae [10] = assay: Myzus persicae oral test; conditions: 120 h, read-out: activity (mortality)
Method in brief: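 Percent mortality was recorded at day 5, where 0% means no aphids killed. Compound prepared from an acetone concentrate diluted in water and combined with IPL41 medium containing sugar was offered to mixed-stage green peach aphids, which sucked it through a parafilm seal.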

| SMILES | pest or weed control at 0.004 mg (Rhipicephalus microplus [1]) [%] | pest or weed control at 0.02 mg (Rhipicephalus microplus [1]) [%] | pest or weed control at 5 µg/cm2 (Rhipicephalus microplus [2]) [%] | pest or weed control at 160 µg/disc, 500 g/ha (Diabrotica balteata) [%] | mortality at 20 mg/m2 [3] [%] | mortality at 100 ppm (Ctenocephalides felis [4]) [%] | mortality at 20 mg/m2 [5] [%] | mortality at 100 g/ha (Spodoptera frugiperda) [%] | mortality at 500 g/ha (Spodoptera frugiperda) [%] | pest or weed control at 5 µg/cm2 (Ctenocephalides felis [6]) [%] | pest or weed control at 5 µg/cm2, 500 g/ha (Rhipicephalus sanguineus) [%] | pest or weed control at 32 µg/disc, 100 g/ha (Diabrotica balteata) [%] | mortality at 100 g/ha (Myzus persicae [7]) [%] | mortality at 20 mg/m2 [8] [%] | pest or weed control at 1 µg/cm2, 100 g/ha (Rhipicephalus sanguineus) [%] | also measured |
| --- | --- | --- | --- | --- | --- | --- | --- | --- | --- | --- | --- | --- | --- | --- | --- | --- |
| C[C@H](NC(=O)c1cc(Cl)cc(C(F)(F)F)c1)c1ncnn1-c1cnc(C#N)cn1 [II-1] | 100 | 100 | 90 | 100 | 80 to 100 | 100 | 80 to 100 | 100 | 100 | 90 | 80 |  |  |  |  | mortality at 4 mg/m2 [5]: 80 to 100% |
| CC(C)C(=O)Nc1ccc(-n2ncnc2[C@H](C)NC(=O)c2cc(Cl)cc(C(F)(F)F)c2)nc1 [II-2, 3-chloro-N-[(1S)-1-{1-[5-(isobutyrylamino)pyridin-2-yl]-1H-1,2,4-triazol-5-yl}ethyl]-5-(trifluoromethyl)benzamide] | 100 | 100 | 100 | 100 | 80 to 100 | 100 |  |  |  | 90 |  | 100 | 100 |  |  | mortality at 500 g/ha (Nezara viridula; application rate 500 g/ha): 90%; mortality at 500 g/ha (Myzus persicae [7]): 90% |
| C[C@H](NC(=O)c1ccc(Cl)c(C(F)(F)F)c1)c1ncnn1-c1ccc(C#N)cn1 [II-10] | 100 | 100 | 100 | 100 |  | 100 |  | 100 | 100 |  | 100 | 100 |  | 80 to 100 | 80 | mortality at 4 mg/m2 [8]: 80 to 100% |
| C[C@H](NC(=O)c1cc(Cl)cc(I)c1)c1ncnn1-c1ccc(C#N)cn1 [II-23] | 100 | 100 | 100 | 100 |  |  | 80 to 100 | 100 | 100 | 80 |  | 100 |  | 80 to 100 |  | mortality at 20 mg/m2 [9]: 80 to 100% |
| CC(C)N(C)C(=O)c1ccc(-n2ncnc2[C@H](C)NC(=O)c2cc(Cl)cc(C(F)(F)F)c2)nc1 [II-26] | 100 | 100 | 100 |  |  |  | 80 to 100 | 83 | 100 | 100 | 80 |  |  | 80 to 100 | 100 | mortality at 500 g/ha (Myzus persicae [7]): 100% |
| C[C@H](NC(=O)c1cc(Cl)cc(C(F)(F)F)c1)c1ncnn1-c1cc(-n2ccc(C(F)(F)F)n2)ccn1 [II-42] | 80 | 0 | 90 | 100 | 80 to 100 |  |  | 100 | 100 |  |  | 100 |  | 80 to 100 |  |  |
| Cc1nc([C@H](C)NC(=O)c2cccc(C(F)(F)F)n2)n(-c2ccc(C#N)cn2)n1 [II-48] | 100 | 100 | 100 |  |  | 90 | 80 to 100 |  |  |  | 100 | 100 |  | 80 to 100 | 100 | mortality at 4 mg/m2 [8]: 80 to 100%; mortality at 4 mg/m2 [5]: 80 to 100% |
| Cc1nc([C@H](C)NC(=O)c2cc(F)cc(C#N)c2)n(-c2ccc(C#N)cn2)n1 [II-105] | 100 |  | 100 |  |  | 100 |  | 100 |  | 100 | 100 | 100 | 90 |  | 100 | mortality at 100 g/ha (Nezara viridula): 100%; mortality at 4 ppm (Myzus persicae [10]): 100% |
| Cc1nc([C@H](C)NC(=O)c2cc(OC(F)F)cc(C(F)F)c2)n(-c2ccc(C#N)cn2)n1 [II-113] | 100 |  | 100 |  |  | 100 |  | 100 |  | 100 | 100 | 100 | 90 |  | 80 | mortality at 100 g/ha (Nezara viridula): 100%; mortality at 0.8 ppm (Myzus persicae [10]): 100%; mortality at 4 ppm (Myzus persicae [10]): 100% |
| C[C@H](NC(=O)c1cc(Cl)cc(OC(F)(F)F)c1)c1ncnn1-c1ncc(OC(F)F)cn1 [II- 30] |  |  |  |  | 80 to 100 |  |  |  |  |  |  |  |  |  |  |  |
